Measurements taken from patent publication US20160106727A1, “COMPOSITION AND METHOD FOR THE TREATMENT OF NEURODEGENERATION” (Wright State University, priority 2011, published 2016).

Tested on: neurogenesis in the subventricular zone of the lateral brain ventricles
Test: Adult neurogenesis by doublecortin staining after two weeks of daily oral treatment
Format: in vivo, male Wistar rats
Conditions: for Fold increase in neurogenesis over vehicle control: anterior subventricular zone
[1] = doublecortin staining, two weeks daily oral

Text: Animals, more specifically, male Wistar rats were used to measure differences in neurogenesis in the subventricular zone of the lateral brain ventricles in response to the various drug treatments using doublecortin primary antibody to measure neurogenesis.
The male Wistar rats aged approximately one year old were used, wherein a doublecortin antibody was used to measure neurogenesis with a horseradish peroxidase labeled secondary antibody developed with 3,3′-Diaminobenzidine (DAB).
Wherein, the male Wistar rats were given voluntary oral drug treatments daily for a two week period.
For example, four groups of Wistar rats, n=6 in each, were given a vehicle control or one of three drug compositions which are voluntary orally administered for a period of two weeks, euthanized and the brain dissected for immunohistochemistry.
Specifically, all dissected animal brains were blocked and post fixed for 24 hours in 4% paraformaldehyde in PBS at 5° C. The brains were then put into 30% sucrose in PBS at 5° C. for at least 3 days and then cut on a cryostat into 50 micron coronal sections. The sections were collected into PBS, blocked for one hour with PBS containing 1% Tween and 3% secondary antibody host serum, then reacted with doublecortin primary antibody, 1:500 dilution in blocking solution. […] Free-floating sections were washed with 3 washes of PBS containing 0.1% Tween, then incubated in the dark with secondary antibodies, Cy3-labeled Donkey anti-rabbit IgG, FITC-labeled Donkey anti-sheep IgG; Jackson Immunology, at a 1:100 dilution in blocking solution for 2.5 hours at room temperature or a Vector ABC elite horseradish peroxidase DAB kit was used according to kit instructions, mounting the final washed sections on gel-subbed slides. Sections with fluorescent secondary antibodies were washed three times with PBS containing 0.1% Tween and then the sections were mounted on gel-subbed slides.
ANOVA (analysis of variance) was used for statistical analysis.

**Q.** Which “Fold increase in neurogenesis over vehicle control” value [1] does the source give for `CNCCC(Oc1ccc(C(F)(F)F)cc1)c1ccccc1` (stereo not shown) [fluoxetine] here?
**A.** The value was “approximately 10 fold”.

**Q.** And the “Fold increase in neurogenesis over vehicle control” value (doublecortin staining, two weeks daily oral, listed as Fluoxetine)?
**A.** The value was 10 fold.

**Q.** And the “Neurogenesis compared to vehicle control (in words)” value [1]?
**A.** The value was “significant increase in neurogenesis”.

**Q.** What about the “Area of doublecortin staining (mean)” value (subventricular zone of anterior lateral ventricles, daily voluntary oral treatment for two weeks, FIG. 1E) of the same compound?
**A.** The value was 0.5727 mm^2.
